# Results as given in patent publication EP1087973B1, “IMIDAZOTRIAZOLOPYRIMIDINES USED AS A DRUG HAVING AN ADENOSINE ANTAGONIST ACTIVITY” (Boehringer Ingelheim Pharma KG, priority 1998, dated 1999).
# Target: T1, human A1 adenosine Receptor (Homo sapiens, UniProt P30542)
# T1 sequence (P30542 1-326): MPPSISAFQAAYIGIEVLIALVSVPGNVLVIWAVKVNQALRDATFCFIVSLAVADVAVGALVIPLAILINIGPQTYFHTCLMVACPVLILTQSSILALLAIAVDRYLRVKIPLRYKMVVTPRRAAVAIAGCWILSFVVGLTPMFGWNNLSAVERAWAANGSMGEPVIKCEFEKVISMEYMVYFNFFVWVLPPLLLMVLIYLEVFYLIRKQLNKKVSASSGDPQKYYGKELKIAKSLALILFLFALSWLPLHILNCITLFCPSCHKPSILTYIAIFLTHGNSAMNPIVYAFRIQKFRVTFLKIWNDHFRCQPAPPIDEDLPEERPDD
# Test: A1 receptor binding, determined in analogy to Ensinger et al.
# Details: KiA1 (human) Rezeptorbindungswerte, Tabelle 2; read-out: KjA1
# From the text: Die nachfolgende Tabelle enthält KiA1 (human) Rezeptorbindungswerte.
row,Structure (SMILES),Ki [nM]
1,"CCn1c(=O)c2[nH]c(C3CCCC3)nc2n2nc(COc3ccccc3)nc12 [Beispiel 29, 7-Cyclopentyl-4-ethyl-2-phenyloxymethyl-imidazo[4.5-e]-s-triazolo[1.5-a]pyrimidin-5-on]",3.6
2,"CCn1c(=O)c2[nH]c(C(C)(C)C)nc2n2nc(Cc3ccc(O)cc3)nc12 [Beispiel 12, 7-t-Butyl-4-ethyl-2-(4-hydroxybenzyl)-imi-dazo[4.5-e]-s-triazolo[1.5-a]pyrimidin-5-on]",6
3,"CCn1c(=O)c2[nH]c(C(C)(C)C)nc2n2nc(Cc3ccc(OC)cc3)nc12 [Beispiel 15, 7-t-Butyl-4-ethyl-2-(4-methoxybenzyl)-imi-dazo[4.5-e]-s-triazolo[1.5-a]pyrimidin-5-on]",2.1
4,"CCn1c(=O)c2[nH]c(C3CCCC3)nc2n2nc(Cn3cccc3)nc12 [Beispiel 35, 7-Cyclopentyl-4-ethyl-2-(N-pyrrolylmethyl)-imidazo[4.5-e]-s-triazolo[1.5-a]pyrimidin-5-on]",2.6
5,"CCCc1nc2c([nH]1)c(=O)n(CC)c1nc(CCc3ccccc3)nn21 [Beispiel 11, 4-Ethyl-2-(2-phenylethyl)-7-n-propyl-imi-dazo[4.5-e]-s-triazolo[1.5-a]pyrimidin-5-on]",8.1

# Target: T2, human A3-adenosine receptor (Homo sapiens, UniProt P0DMS8)
# T2 sequence (P0DMS8 1-318): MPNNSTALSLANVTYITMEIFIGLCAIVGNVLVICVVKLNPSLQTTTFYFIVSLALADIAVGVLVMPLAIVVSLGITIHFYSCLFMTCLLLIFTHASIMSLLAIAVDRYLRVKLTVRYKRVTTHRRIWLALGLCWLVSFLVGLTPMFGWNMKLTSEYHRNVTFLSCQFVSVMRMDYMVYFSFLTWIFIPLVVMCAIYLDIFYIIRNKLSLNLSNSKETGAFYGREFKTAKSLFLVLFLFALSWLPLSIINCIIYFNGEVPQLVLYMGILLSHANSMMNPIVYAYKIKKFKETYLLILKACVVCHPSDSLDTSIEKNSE
# Test: A3 receptor binding, determined in analogy to Salvatore et al.
# Details: KiA3 (human) Rezeptorbindungswerte, Tabelle 3
# From the text: Tabelle 3 enthält KiA3 (human) Rezeptorbindungswerte.
row,Ki [nM],Structure (SMILES)
1,8.3,"CCCc1nc2c([nH]1)c(=O)n(CCC)c1nc(-c3ccco3)nn21 [Beispiel 37, 2-(2-Furanyl)-4,7-di-n-propyl-imidazo[4.5-e]-s-triazolo[1.5-a]pyrimidin-5-on]"
2,5.6,"CCCc1nc2c([nH]1)c(=O)n(CCC)c1nc(C3CCCC3)nn21 [Beispiel 2, 2-Cyclopentyl-4,7-di-n-propyl-imidazo[4.5-e]-s-triazolo[1.5-a]pyrimidin-5-on]"
3,0.9,"CCCn1c(=O)c2[nH]c(C)nc2n2nc(Cc3ccccc3)nc12 [Beispiel 8, 2-Benzyl-7-methyl-4-n-propyl-imidazo[4.5-e]-s-triazolo[1.5-a]pyrimidin-5-on]"

# Second part, the compound before the results:
row,Structure (SMILES),Ki [nM]
1,"CCCn1c(=O)c2[nH]c(C)nc2n2nc(-c3ccco3)nc12 [Beispiel 36, 2-(2-Furanyl)-7-methyl-4-n-propyl-imi-dazo[4.5-e]-s-triazolo[1.5-a]pyrimidin-5-on]",2.2
2,"CCn1c(=O)c2[nH]c(C)nc2n2nc(CCc3ccccc3)nc12 [Beispiel 10, 4-Ethyl-7-methyl-2-(2-phenylethyl)-imi-dazo[4.5-e]-s-triazolo[1.5-a]pyrimidin-5-on]",7.2
